From US8778982B2, “Synergistic microbicidal compositions” (Rohm and Haas Company, priority 2007, dated 2014)

What was measured:
Format in all cases: cell-based
Conditions in all cases: for SI / Qa: A = MIT; for Qa: A alone where Qb = 0
[1] = tested on: Escherichia coli (E. coli—ATCC #8739); experiment: Synergy test, microtiter plate high resolution MIC assay, M9GY medium, bacterium
Source text: (§1) One measure of synergism is the industrially accepted method described by Kull, F. C.; Eisman, P. C.; Sylwestrowicz, H. D. and Mayer, R. L., in Applied Microbiology 9:538-541 (1961), using the ratio determined by the formula: Qa/QA+Qb/QB=Synergy Index(“SI”) wherein: • QA=concentration of compound A (first component) in ppm, acting alone, which produced an end point (MIC of Compound A). • Qa=concentration of compound A in ppm, in the mixture, which produced an end point. • QB=concentration of compound B (second component) in ppm, acting alone, which produced an end point (MIC of Compound B). • Qb=concentration of compound B in ppm, in the mixture, which produced an end point.
(§2) When the sum of Qa/QA and Qb/QB is greater than one, antagonism is indicated. […] The lower the SI, the greater is the synergy shown by that particular mixture. The minimum inhibitory concentration (MIC) of a microbicide is the lowest concentration tested under a specific set of conditions that prevents the growth of the tested microorganisms.
(§3) Synergy tests were conducted using standard microtiter plate assays with media designed for optimal growth of the test microorganism. Minimal salt medium supplemented with 0.2% glucose and 0.1% yeast extract (M9GY medium) was used for testing bacteria; Potato Dextrose Broth (PDB medium) was used for testing yeast and mold. In this method, a wide range of combinations of microbicides and other personal care raw materials was tested by conducting high resolution MIC assays in the presence of various concentrations of CMIT/MIT, MIT, or BIT. High resolution MICs were determined by adding varying amounts of microbicide to one column of a microtitre plate and doing subsequent […] dilutions using an automated liquid handling system to obtain a series of endpoints ranging from 2 ppm to 10,000 ppm active ingredient.
(§4) The synergy of the combinations of the present invention was determined against a bacterium, Escherichia coli (E. coli—ATCC #8739), a yeast, Candida albicans (C. albicans—ATCC 10231), and a mold, Aspergillus niger (A. niger—ATCC 16404). The bacteria were used at a concentration of about 5×10^6 bacteria per mL and the yeast and mold at 5×10^5 fungi per mL. These microorganisms are representative of natural contaminants in many consumer and industrial applications. […] (yeast and mold) or 30° C. (bacteria).

[2] = tested on: Candida albicans (C. albicans—ATCC 10231); experiment: Synergy test, microtiter plate high resolution MIC assay, PDB medium, yeast
Source text: as §1, §2, §3, §4

[3] = tested on: Aspergillus niger (A. niger—ATCC 16404); experiment: Synergy test, microtiter plate high resolution MIC assay, PDB medium, mold
Source text: as §1, §2, §3, §4

[4] = E. coli 8739 - M9GY (1 day), B = Glyceryl caprate
[5] = E. coli 8739 - M9GY (1 day), B = Glyceryl mono dicaprylate
[6] = E. coli 8739 - M9GY (1 day), B = Lauric arginate
[7] = E. coli 8739 - M9GY (1 day), B = Myristamidopropyl PG-dimonium chloride phosphate
[8] = E. coli 8739 - M9GY (1 day), B = Propylene glycol caprylate
[9] = E. coli 8739 - M9GY (1 day), B = Propylene glycol monolaurate
[10] = E. coli 8739 - M9GY (6 days), B = Ethylhexylglycerin
[11] = C. albicans 10231 - PDB (1 day), B = Propylene glycol monolaurate
[12] = C. albicans 10231 - PDB (2 days), B = Glyceryl mono dicaprylate
[13] = C. albicans 10231 - PDB (6 days), B = Ethylhexylglycerin
[14] = C. albicans 10231 - PDB (6 days), B = Glyceryl caprate
[15] = C. albicans 10231 - PDB (6 days), B = Lauric arginate
[16] = C. albicans 10231 - PDB (6 days), B = Myristamidopropyl PG-dimonium chloride phosphate
[17] = C. albicans 10231 - PDB (6 days), B = Propylene glycol caprylate
[18] = A. niger 16404 - PDB (3 days), B = Myristamidopropyl PG-dimonium chloride phosphate
[19] = A. niger 16404 - PDB (3 days), B = Propylene glycol caprylate
[20] = A. niger 16404 - PDB (10 days), B = Ethylhexylglycerin
[21] = A. niger 16404 - PDB (10 days), B = Glyceryl caprate
[22] = A. niger 16404 - PDB (10 days), B = Glyceryl mono dicaprylate
[23] = A. niger 16404 - PDB (10 days), B = Lauric arginate
[24] = A. niger 16404 - PDB (10 days), B = Propylene glycol monolaurate

In the case of `Cn1sccc1=O` [MIT, 2-methyl-4-isothiazolin-3-one], the “Synergy Index (SI) = Qa/QA+Qb/QB” value ([1]; E. coli 8739, M9GY, 1 day) is reported as 1.00, the “MIC of the component acting alone (QA or QB)” value (“MIC … (QA or QB)” below) ([1]; E. coli 8739, M9GY, 1 day, 30° C.) is reported as 30.00 ppm and the SI [1, 4] is reported as 1.00. The Qa [1, 4] was 30.00 ppm, the SI [1, 5] was 1.00 and the Qa [1, 5] was 30.00 ppm. The SI [1, 6] was 1.00, the Qa [1, 6] was 30.00 ppm and the SI [1, 7] was 1.00. For the same compound, the Qa [1, 7] was 30.00 ppm, the SI [1, 8] was 1.00 and the Qa [1, 8] was 30.00 ppm. The SI [1, 9] was 1.00, the Qa [1, 9] was 30.00 ppm and the SI [1, 10] was 1.00. For the same compound, the Qa [1, 10] was 40.00 ppm, the MIC ([1]; Escherichia coli, ATCC8739, 24 h, read-out: MIC of the component acting alone (QA or QB)) was 30 µg/mL and the “Synergy Index (SI) = Qa/QA+Qb/QB” value ([2]; C. albicans 10231, PDB, 6 days) was 1.00. The “MIC … (QA or QB)” value ([2]; C. albicans 10231, PDB, 6 days, 25° C.) was 200.00 ppm, the SI [2, 11] was 1.00 and the Qa [2, 11] was 100.00 ppm. For the same compound, the SI [2, 12] was 1.00, the Qa [2, 12] was 150.00 ppm and the SI [2, 13] was 1.00. It also gave a Qa [2, 13] of 200.00 ppm, an SI [2, 14] of 1.00 and a Qa [2, 14] of 200.00 ppm. It also gave an SI [2, 15] of 1.00, a Qa [2, 15] of 200.00 ppm and an SI [2, 16] of 1.00. For the same compound, the Qa [2, 16] was 200.00 ppm, the SI [2, 17] was 1.00 and the Qa [2, 17] was 200.00 ppm. The MIC ([2]; Candida albicans, ATCC10231, 144 h, read-out: MIC of the component acting alone (QA or QB)) was 200 µg/mL, the “Synergy Index (SI) = Qa/QA+Qb/QB” value ([3]; A. niger 16404, PDB, 10 days) was 1.00 and the “MIC … (QA or QB)” value ([3]; A. niger 16404, PDB, 10 days, 25° C.) was 500.00 ppm. For the same compound, the SI [3, 18] was 1.00, the Qa [3, 18] was 400 ppm and the SI [3, 19] was 1.00. It also gave a Qa [3, 19] of 400 ppm, an SI [3, 20] of 1.00 and a Qa [3, 20] of 750 ppm. It also gave an SI [3, 21] of 1.00, a Qa [3, 21] of 500 ppm and an SI [3, 22] of 1.00. The Qa [3, 22] was 500 ppm, the SI [3, 23] was 1.00 and the Qa [3, 23] was 750 ppm. For the same compound, the SI [3, 24] was 1.00, the Qa [3, 24] was 750.00 ppm and the MIC ([3]; Aspergillus niger, ATCC16404, 240 h, read-out: MIC of the component acting alone (QA or QB)) was 500 µg/mL.
